Results: patent US8067454B2, “Thio-substituted Anthra [1, 2-d] imidazole- 6, 11-dione derivatives, preparation method and application thereof” (National Defense Medical Center, priority 2010, dated 2011)

Assays:
EKVX = experiment: NCI 60-cell drug screen, Non-Small Cell Lung Cancer EKVX; assay type: cell-based, human; details: 1.00E−5 Molar
[1] = tested on: SVG p12, GBM8401 and GBM8901; experiment: MTT assay, normal cell versus tumor cells (categories 39-3 to 39-7); details: tumor cell survival rate less than 80%; FIG. 5C
IGROV1 = experiment: NCI 60-cell drug screen, Ovarian Cancer IGROV1; assay type: cell-based, human; details: 1.00E−5 Molar
PC-3 = experiment: NCI 60-cell drug screen, Prostate Cancer PC-3; assay type: cell-based, human; details: 1.00E−5 Molar
COLO 205 = experiment: NCI 60-cell drug screen, Colon Cancer COLO 205; assay type: cell-based, human; details: 1.00E−5 Molar
NCI-H460 = experiment: NCI 60-cell drug screen, Non-Small Cell Lung Cancer NCI-H460; assay type: cell-based, human; details: 1.00E−5 Molar
MDA-MB-468 = experiment: NCI 60-cell drug screen, Breast Cancer MDA-MB-468; assay type: cell-based, human; details: 1.00E−5 Molar
K-562 = experiment: NCI 60-cell drug screen, Leukemia K-562; assay type: cell-based, human; details: 1.00E−5 Molar
[2] = tested on: 60 kinds of different human cancer cells; experiment: NCI 60-cell drug screen, whole panel (One Dose Mean Graph); assay type: cell-based; details: mean over the cell lines of the panel; 1.00E−5 Molar
MDA-MB-435 = experiment: NCI 60-cell drug screen, Melanoma MDA-MB-435; assay type: cell-based, human; details: 1.00E−5 Molar
NCI-H23 = experiment: NCI 60-cell drug screen, Non-Small Cell Lung Cancer NCI-H23; assay type: cell-based, human; details: 1.00E−5 Molar
UO-31 = experiment: NCI 60-cell drug screen, Renal Cancer UO-31; assay type: cell-based, human; details: 1.00E−5 Molar
GBM8901 = experiment: MTT assay, GBM8901 tumor cell; details: for Cell survival rate (%) GBM8901: concentration 10 μM, tumor cell
SVG p12 = experiment: MTT assay, SVG p12 normal cell; details: concentration 10 μM, normal cell
MOLT-4 = experiment: NCI 60-cell drug screen, Leukemia MOLT-4; assay type: cell-based, human; details: 1.00E−5 Molar
SW-620 = experiment: NCI 60-cell drug screen, Colon Cancer SW-620; assay type: cell-based, human; details: 1.00E−5 Molar
HCT-116 = experiment: NCI 60-cell drug screen, Colon Cancer HCT-116; assay type: cell-based, human; details: 1.00E−5 Molar
MCF7 = experiment: NCI 60-cell drug screen, Breast Cancer MCF7; assay type: cell-based, human; details: 1.00E−5 Molar
UACC-257 = experiment: NCI 60-cell drug screen, Melanoma UACC-257; assay type: cell-based, human; details: 1.00E−5 Molar
NCI-H322M = experiment: NCI 60-cell drug screen, Non-Small Cell Lung Cancer NCI-H322M; assay type: cell-based, human; details: 1.00E−5 Molar
DU-145 = experiment: NCI 60-cell drug screen, Prostate Cancer DU-145; assay type: cell-based, human; details: 1.00E−5 Molar
U251 = experiment: NCI 60-cell drug screen, CNS Cancer U251; assay type: cell-based, human; details: 1.00E−5 Molar
CAKI-1 = experiment: NCI 60-cell drug screen, Renal Cancer CAKI-1; assay type: cell-based, human; details: 1.00E−5 Molar
HS 578T = experiment: NCI 60-cell drug screen, Breast Cancer HS 578T; assay type: cell-based, human; details: 1.00E−5 Molar
HT29 = experiment: NCI 60-cell drug screen, Colon Cancer HT29; assay type: cell-based, human; details: 1.00E−5 Molar
OVCAR-3 = experiment: NCI 60-cell drug screen, Ovarian Cancer OVCAR-3; assay type: cell-based, human; details: 1.00E−5 Molar
[3] = tested on: telomerase (total cell lysates of lung cancer cell line H1299); experiment: Telomeric Repeat Amplification Protocol (TRAP) assay, screen of telomerase inhibitors; assay type: biochemical, human; details: 10 μM
Procedure: Telomeric Repeat Amplification Protocol (TRAP) Assay:
Telomerase activity was detected by a modified version of the general TRAP protocol. Telomerase products were resolved by 10% polyacrylamide gel electrophoresis and visualized by staining with SYBER Green. As a source of telomerase, the total cell lysates derived from lung cancer cell line H1299 cells were used. Protein concentration of the lysates was assayed using Bio-Rad protein assay kit using BSA standards.
In the TRAP assay, if a compound can stabilize the G-quadruplex structure such that telomerase can not act on telomere, then the effect of inhibiting the telomerase can be achieved. In the FIG. 2A to FIG. 2C, DMSO treatment represents as the positive control group (P); while a negative control group (N) used 5 μl of 0.1 mg/ml RNase A (CLONTECH) in the assay. It could be observed that a number of telomeric fragments were detected in the positive control group (P), while none was detected in the negative control group (N). 10 μM was selected as the concentration used to screen compounds.

## O=C1c2ccccc2C(=O)c2c1ccc1nc(SCCN3CCCC3)[nH]c21 [f1-11]
EKVX
  Growth Percent, EKVX: 73.04%
[1]
  category 39-5: survival rate higher than 80% for normal cell SVG p12 and only inhibits growth of tumor cell GBM8901: in this category
IGROV1
  Growth Percent, IGROV1: 23.20%
PC-3
  Growth Percent, PC-3: 6.90%
COLO 205
  Growth Percent, COLO 205: 17.13%
NCI-H460
  Growth Percent, NCI-H460: 34.08%
MDA-MB-468
  Growth Percent, MDA-MB-468: 67.90%
K-562
  Growth Percent, K-562: 26.94%
[2]
  Growth Percent, Mean: 52.08%
MDA-MB-435
  Growth Percent, MDA-MB-435: 66.47%
NCI-H23
  Growth Percent, NCI-H23: 66.93%
UO-31
  Growth Percent, UO-31: 21.22%
GBM8901
  Cell survival rate (%) GBM8901: 18 ± 2%
SVG p12
  Cell survival rate (%) SVG p12: 98 ± 1%
MOLT-4
  Growth Percent, MOLT-4: 30.94%
SW-620
  Growth Percent, SW-620: 22.75%
HCT-116
  Growth Percent, HCT-116: 38.81%
MCF7
  Growth Percent, MCF7: 30.88%
UACC-257
  Growth Percent, UACC-257: 92.77%
NCI-H322M
  Growth Percent, NCI-H322M: 73.18%
DU-145
  Growth Percent, DU-145: 17.91%
U251
  Growth Percent, U251: 69.07%

## CN(C)CCCSc1nc2ccc3c(c2[nH]1)C(=O)c1ccccc1C3=O [f1-15, 2-(3-(dimethylamino)propylthio)-1H-anthra[1,2-d]imidazole-6,11-dione]
EKVX
  Growth Percent, EKVX: 65.23%
IGROV1
  Growth Percent, IGROV1: 30.89%
PC-3
  Growth Percent, PC-3: 36.71%
COLO 205
  Growth Percent, COLO 205: 62.01%
NCI-H460
  Growth Percent, NCI-H460: 23.20%
K-562
  Growth Percent, K-562: −31.59%
[2]
  Growth Percent, Mean: 47.41%
MDA-MB-435
  Growth Percent, MDA-MB-435: 72.18%
NCI-H23
  Growth Percent, NCI-H23: 53.83%
CAKI-1
  Growth Percent, CAKI-1: −14.89%
UO-31
  Growth Percent, UO-31: 25.50%
GBM8901
  Cell survival rate (%) GBM8901: 63 ± 4%
HS 578T
  Growth Percent, HS 578T: 69.32%
SVG p12
  Cell survival rate (%) SVG p12: 11 ± 6%
MOLT-4
  Growth Percent, MOLT-4: −2.90%
SW-620
  Growth Percent, SW-620: 26.35%
HCT-116
  Growth Percent, HCT-116: 27.58%
MCF7
  Growth Percent, MCF7: 16.92%
HT29
  Growth Percent, HT29: 17.84%
UACC-257
  Growth Percent, UACC-257: 114.50%
NCI-H322M
  Growth Percent, NCI-H322M: 70.75%
DU-145
  Growth Percent, DU-145: 36.35%
U251
  Growth Percent, U251: 74.11%
OVCAR-3
  Growth Percent, OVCAR-3: 59.33%

## O=C1c2ccccc2C(=O)c2c1ccc1nc3n(c21)CCS3 [f3-1, 2-(2-N-ethylthio)-1H-anthra[1,2-d]imidazole-6,11-dione]
EKVX
  Growth Percent, EKVX: 35.80%
IGROV1
  Growth Percent, IGROV1: 62.31%
PC-3
  Growth Percent, PC-3: 93.92%
COLO 205
  Growth Percent, COLO 205: 95.22%
NCI-H460
  Growth Percent, NCI-H460: 59.46%
MDA-MB-468
  Growth Percent, MDA-MB-468: 69.68%
K-562
  Growth Percent, K-562: 78.71%
[2]
  Growth Percent, Mean: 75.99%
MDA-MB-435
  Growth Percent, MDA-MB-435: 83.11%
NCI-H23
  Growth Percent, NCI-H23: 84.29%
UO-31
  Growth Percent, UO-31: 45.79%
GBM8901
  Cell survival rate (%) GBM8901: 37 ± 4%
GBM8901; survival rate less than 80%
  inhibitory effect against tumor cell GBM8901: exhibited inhibitory effect against tumor cell GBM8901
SVG p12
  Cell survival rate (%) SVG p12: 62 ± 1%
MOLT-4
  Growth Percent, MOLT-4: 58.39%
SW-620
  Growth Percent, SW-620: 69.29%
HCT-116
  Growth Percent, HCT-116: 68.43%
MCF7
  Growth Percent, MCF7: 64.78%
UACC-257
  Growth Percent, UACC-257: 80.59%
NCI-H322M
  Growth Percent, NCI-H322M: 72.06%
DU-145
  Growth Percent, DU-145: 68.84%
[3]
  inhibition effect against telomerase: exhibited inhibition effect against telomerase
U251
  Growth Percent, U251: 72.48%
